Measurements: ChEMBL document CHEMBL3044741, “Synthesis of novel biologically active methylene derivatives of sydnones” (Med Chem Res, 2013)
Converted amounts (≈) assume the structure as drawn.

Columns and labels:
[1] = Selectivity index, ratio of CC50 for human MT4 cells to IC50 for HIV2 ROD; assay type: functional
[2] = Cytotoxicity against human MT4 cells by MTT assay; assay type: cell-based
[3] = Selectivity index, ratio of CC50 for human MT4 cells to IC50 for HIV1 3B; assay type: functional
[4] = tested on: Human immunodeficiency virus 2; test: Antiviral activity against HIV2 ROD infected in MT4 cells assessed as inhibition of virus-induced cytopathogenicity by MTT assay; assay type: functional, organism-based; details: Human immunodeficiency virus 2, ISOLATE ROD
[5] = tested on: Human alphaherpesvirus 3; test: Antiviral activity against thymidine kinase-deficient Varicella-zoster virus infected in HEL cells assessed as reduction in plaque formation; assay type: functional, organism-based; details: Human alphaherpesvirus 3, HEL
[6] = tested on: Human immunodeficiency virus 1; test: Antiviral activity against HIV1 3B infected in MT4 cells assessed as inhibition of virus-induced cytopathogenicity by MTT assay; assay type: functional, organism-based; details: Human immunodeficiency virus 1, 3B
[7] = tested on: Human alphaherpesvirus 3; test: Antiviral activity against Varicella-zoster virus Oka expressing thymidine kinase infected in HEL cells assessed as reduction in plaque formation; assay type: functional, organism-based; details: Human alphaherpesvirus 3, strain Oka vaccine
[8] = Cytotoxicity against human HEL cells; assay type: cell-based
[9] = tested on: Cytomegalovirus; test: Antiviral activity against Cytomegalovirus Davis in HEL cells assessed as reduction in plaque formation; assay type: functional, organism-based; details: Human betaherpesvirus 5, Davis
[10] = Cytotoxicity against human HEL cells assessed as alteration in cell morphology; assay type: cell-based
[11] = tested on: Cytomegalovirus; test: Antiviral activity against Cytomegalovirus AD-169 infected in HEL cells assessed as reduction in plaque formation; assay type: functional, organism-based; details: Human betaherpesvirus 5, AD-169, HEL
[12] = tested on: Aspergillus niger; test: Antifungal activity against Aspergillus niger MTCC 282; assay type: functional
[13] = tested on: Aspergillus clavatus; test: Antifungal activity against Aspergillus clavatus MTCC 1323; assay type: functional
[14] = tested on: Candida albicans; test: Antifungal activity against Candida albicans MTCC 227; assay type: functional
[15] = tested on: Aspergillus niger; test: Antifungal activity against Aspergillus niger MTCC 282 at 250 ug/ml after 74 hrs by Kirby-Bauer method; assay type: functional; details: MTCC 282, 74 h, read-out: IZ
[16] = tested on: Aspergillus clavatus; test: Antifungal activity against Aspergillus clavatus MTCC 1323 at 250 ug/ml after 74 hrs by Kirby-Bauer method; assay type: functional; details: MTCC 1323, 74 h, read-out: IZ
[17] = tested on: Candida albicans; test: Antifungal activity against Candida albicans MTCC 227 at 250 ug/ml after 74 hrs by Kirby-Bauer method; assay type: functional; details: MTCC 227, 74 h, read-out: IZ
[18] = tested on: Pseudomonas aeruginosa; test: Antibacterial activity against Pseudomonas aeruginosa MTCC 424 after 24 hrs by broth dilution method; assay type: functional; details: MTCC 424, 24 h
[19] = tested on: Streptococcus pyogenes; test: Antibacterial activity against Streptococcus pyogenes MTCC 442 after 24 hrs by broth dilution method; assay type: functional; details: MTCC 442, 24 h
[20] = tested on: Escherichia coli; test: Antibacterial activity against Escherichia coli MTCC 443 after 24 hrs by broth dilution method; assay type: functional; details: MTCC 443, 24 h
[21] = tested on: Staphylococcus aureus; test: Antibacterial activity against Staphylococcus aureus MTCC 96 after 24 hrs by broth dilution method; assay type: functional; details: MTCC 96, 24 h
[22] = tested on: Pseudomonas aeruginosa; test: Antibacterial activity against Pseudomonas aeruginosa MTCC 424 at 250 ug/ml after 24 hrs by Kirby-Bauer method; assay type: functional; details: MTCC 424, 24 h, read-out: IZ
[23] = tested on: Escherichia coli; test: Antibacterial activity against Escherichia coli MTCC 443 at 250 ug/ml after 24 hrs by Kirby-Bauer method; assay type: functional; details: MTCC 443, 24 h, read-out: IZ
[24] = tested on: Streptococcus pyogenes; test: Antibacterial activity against Streptococcus pyogenes MTCC 442 at 250 ug/ml after 24 hrs by Kirby-Bauer method; assay type: functional; details: MTCC 442, 24 h, read-out: IZ
[25] = tested on: Staphylococcus aureus; test: Antibacterial activity against Staphylococcus aureus MTCC 96 at 250 ug/ml after 24 hrs by Kirby-Bauer method; assay type: functional; details: MTCC 96, 24 h, read-out: IZ

SMILES	Ratio CC50/IC50 [1]	CC50 [2] [µg/mL]	Ratio CC50/IC50 [3]	IC50 [4] [µg/mL]	EC50 [5] [µg/mL]	IC50 [6] [µg/mL]	EC50 [7] [µg/mL]	CC50 [8] [µg/mL]	EC50 [9] [µg/mL]	MCC [10] [µg/mL]	EC50 [11] [µg/mL]	MIC [12] [µg/mL]	MIC [13] [µg/mL]	MIC [14] [µg/mL]	zone of inhibition at 250 µg/mL [15] [mm]	zone of inhibition at 250 µg/mL [16] [mm]	zone of inhibition at 250 µg/mL [17] [mm]	MIC [18] [µg/mL]	MIC [19] [µg/mL]	MIC [20] [µg/mL]	further results
Cc1ccc(-[n+]2noc([O-])c2CN2CCN(C3=Nc4ccccc4Sc4ccccc43)CC2)cc1	<1	13.7 (≈ 28.2 µM)	<1	> 13.6	> 20	> 13.6	> 20	14.8 (≈ 30.6 µM)	> 20	≥ 20	> 4	1000 (≈ 2070 µM)	1000 (≈ 2070 µM)	1000 (≈ 2070 µM)	18	18	21	125 (≈ 258 µM)	500 (≈ 1030 µM)	250 (≈ 517 µM)	MIC [21]: 200 µg/mL (≈ 414 µM); zone of inhibition at 250 µg/mL [22]: 21 mm; zone of inhibition at 250 µg/mL [23]: 19 mm; zone of inhibition at 250 µg/mL [24]: 16 mm; zone of inhibition at 250 µg/mL [25]: 19 mm
[O-]c1on[n+](-c2ccc(Cc3ccc(-[n+]4noc([O-])c4CN4CCN(c5ccccc5)CC4)cc3)cc2)c1CN1CCN(c2ccccc2)CC1	<1	10.3 (≈ 15 µM)	<1	> 10.3	> 4	> 10.3	> 4	12 (≈ 17.5 µM)	> 20	≥ 20	> 4	1000 (≈ 1460 µM)	250 (≈ 365 µM)	250 (≈ 365 µM)	20	25	21	100 (≈ 146 µM)	200 (≈ 292 µM)	125 (≈ 183 µM)	MIC [21]: 500 µg/mL (≈ 730 µM); zone of inhibition at 250 µg/mL [22]: 22 mm; zone of inhibition at 250 µg/mL [23]: 20 mm; zone of inhibition at 250 µg/mL [24]: 18 mm; zone of inhibition at 250 µg/mL [25]: 17 mm
Cc1ccc(-[n+]2noc([O-])c2CN2CCN(C)CC2)cc1	<1	12.7 (≈ 44 µM)	<1	> 12.7	> 20	> 12.9	> 20	25.6 (≈ 88.8 µM)	> 20	100	> 20	500 (≈ 1730 µM)	500 (≈ 1730 µM)	500 (≈ 1730 µM)	21	21	18	100 (≈ 347 µM)	100 (≈ 347 µM)	250 (≈ 867 µM)	MIC [21]: 500 µg/mL (≈ 1730 µM); zone of inhibition at 250 µg/mL [22]: 21 mm; zone of inhibition at 250 µg/mL [23]: 18 mm; zone of inhibition at 250 µg/mL [24]: 20 mm; zone of inhibition at 250 µg/mL [25]: 16 mm
